According to ChEMBL document CHEMBL1201862, “PubChem BioAssay data set” (2004):
The source made the active and inactive calls.

Assays:
[1] = molecular target: T1, RNA-binding protein pos-1 (Caenorhabditis elegans, UniProt G5EF15); test: inhibitors of POS-1/mex-3 RNA binding, dose response, biochemical, fluorescence polarization (AID 1964);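 further: purified POS-1 fused to maltose binding protein made in E. coli; potency of compounds blocking POS-1 binding to fluorescent RNA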
T1 sequence (G5EF15 whole entry): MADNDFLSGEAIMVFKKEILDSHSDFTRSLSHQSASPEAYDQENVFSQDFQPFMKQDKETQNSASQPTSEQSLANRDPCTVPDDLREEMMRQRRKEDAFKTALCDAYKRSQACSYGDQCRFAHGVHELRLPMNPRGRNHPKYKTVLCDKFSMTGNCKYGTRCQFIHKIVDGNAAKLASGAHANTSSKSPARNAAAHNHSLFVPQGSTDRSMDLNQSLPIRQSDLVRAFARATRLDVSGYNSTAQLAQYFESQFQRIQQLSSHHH

[2] = molecular target: T2, High affinity choline transporter 1 (Homo sapiens, UniProt Q9GZV3); test: CHT inhibitors, dose response, cell-based, 5-point CRC, membrane potential dye (AID 504840); type: functional
T2 sequence (Q9GZV3 whole entry): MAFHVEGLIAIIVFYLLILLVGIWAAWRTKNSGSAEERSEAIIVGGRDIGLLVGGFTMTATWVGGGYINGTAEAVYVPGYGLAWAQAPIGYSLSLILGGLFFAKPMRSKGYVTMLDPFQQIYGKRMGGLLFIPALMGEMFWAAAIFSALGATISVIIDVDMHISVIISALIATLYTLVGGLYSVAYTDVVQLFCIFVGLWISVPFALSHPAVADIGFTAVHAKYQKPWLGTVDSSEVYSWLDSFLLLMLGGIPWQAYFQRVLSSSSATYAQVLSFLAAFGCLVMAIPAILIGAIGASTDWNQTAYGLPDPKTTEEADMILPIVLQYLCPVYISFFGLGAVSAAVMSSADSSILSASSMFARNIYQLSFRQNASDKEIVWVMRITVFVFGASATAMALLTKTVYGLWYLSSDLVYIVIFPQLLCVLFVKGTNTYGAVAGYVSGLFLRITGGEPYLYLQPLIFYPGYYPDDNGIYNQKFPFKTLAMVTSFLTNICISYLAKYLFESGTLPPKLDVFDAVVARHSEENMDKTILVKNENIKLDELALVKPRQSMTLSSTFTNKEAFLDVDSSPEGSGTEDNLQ

[3] = molecular target: T3, Zinc finger protein mex-5 (Caenorhabditis elegans, UniProt Q9XUB2); test: MEX-5/TCR-2 RNA interaction inhibitors, dose response, biochemical, C. elegans, fluorescence polarization (AID 1960)
T3 sequence (Q9XUB2 whole entry): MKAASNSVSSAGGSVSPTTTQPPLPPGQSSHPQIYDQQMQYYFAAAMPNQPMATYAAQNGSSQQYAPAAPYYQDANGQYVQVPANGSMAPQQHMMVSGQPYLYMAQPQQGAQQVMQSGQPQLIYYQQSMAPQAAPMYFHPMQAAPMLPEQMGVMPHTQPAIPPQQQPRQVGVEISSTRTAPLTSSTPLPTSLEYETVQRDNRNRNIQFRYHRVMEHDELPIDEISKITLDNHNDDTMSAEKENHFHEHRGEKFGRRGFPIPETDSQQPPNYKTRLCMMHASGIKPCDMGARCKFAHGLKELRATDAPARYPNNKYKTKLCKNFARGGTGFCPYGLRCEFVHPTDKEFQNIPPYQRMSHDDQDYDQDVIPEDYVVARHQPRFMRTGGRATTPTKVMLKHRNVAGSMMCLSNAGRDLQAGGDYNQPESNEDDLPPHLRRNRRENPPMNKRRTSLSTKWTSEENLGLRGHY

[4] = molecular target: NAD-dependent protein deacylase sirtuin-5, mitochondrial (Homo sapiens, UniProt Q9NXA8); test: SIRT5 deacylase inhibitors, dose response, biochemical, fluorescence imaging, cherry-pick, set 6 (AID 720597)
[5] = NIH:OVCAR-3 ovarian cancer cell cytotoxicity, dose response, PAX8 inhibitor project, plate reader, dry powder samples (AID 743044); type: functional, cell-based
Paired box protein Pax-8 = Paired box protein Pax-8 (Homo sapiens, UniProt Q06710); test: inhibitors of PAX8-driven TPO luciferase reporter, dose response, RMG-I cells, cherry-pick (AID 687027); type: functional, cell-based;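 further: luciferase reporter driven by Pax8 target thyroperoxidase promoter measured by SteadyGlo luminescence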
[6] = IGROV1 ovarian cancer cell cytotoxicity, dose response, PAX8 inhibitor project, plate reader, dry powder samples (AID 743043); type: functional, cell-based; conditions: IGROV-1
[7] = IOSE-T80 ovarian epithelial cell cytotoxicity, dose response, cytotoxicity control for PAX8 inhibitor project, plate reader, dry powder samples (AID 743045); type: functional, cell-based
[8] = A2780 ovarian cancer cell cytotoxicity, dose response, cytotoxicity control, plate reader, dry powder samples (AID 743046); type: functional, cell-based
[9] = cytotoxicity in OVCAR8 ovarian cancer cells, dose response, PAX8 project, cell-based, plate reader, dry powder samples (AID 743197); type: functional; conditions: OVCAR-8
[10] = molecular target: Glutathione-S-transferase (Schistosoma japonicum, UniProt Q26513); test: biotin-GST/anti-GST TR-FRET signal inhibitors, dose response, artefact control for Vif-APOBEC3G degradation inhibitor project, biochemical (AID 1117362); type: functional
[11] = A375 melanoma cell cytotoxicity, dose response, counter-screen for MITF inhibitor project, CellTiter-Glo luminescence, dry powder, set 7 (AID 624490); type: functional, cell-based; conditions: A-375
[12] = MITF Measured in Cell-Based System Using Plate Reader - 2084-01_Inhibitor_Dose_DryPowder_Activity_Set7.; type: functional
[13] = A375 melanoma cell cytotoxicity, dose response, counter-screen for MITF inhibitor project, CellTiter-Glo luminescence, dry powder, set 6 (AID 624488); type: functional, cell-based; conditions: A-375
[14] = MITF Orthogonal Assay: SK-MEL-5 CTG Assay Measured in Cell-Based System Using Plate Reader - 2084-02_Inhibitor_Dose_DryPowder_Activity_Set5.; type: functional
[15] = TRPM1 promoter luciferase reporter signal decrease, dose response, MITF inhibitor project, cell-based, SK-MEL-5, dry powder, set 9 (AID 651588); type: functional
[16] = A375 melanoma cell viability loss, dose response, counter-screen for MITF inhibitor project, CellTiter-Glo luminescence, dry powder, set 4 (AID 624364); type: functional, cell-based; conditions: A-375;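 further: A375 melanoma cells are MITF independent so this is a counter screen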
[17] = SK-MEL-5 parental cell viability reduction, dose response, orthogonal assay for MITF inhibitor project, CellTiter-Glo luminescence, dry powder, set 8 (AID 651586); type: functional, cell-based
[18] = MITF Orthogonal Assay: MALME3 CTG Assay Measured in Cell-Based System Using Plate Reader - 2084-04_Inhibitor_Dose_DryPowder_Activity_Set6.; type: functional; conditions: MALME-3
[19] = SK-MEL-5 parental line viability, dose response, MITF inhibitor project, cell-based, CellTiter-Glo, dry powder, set 6 (AID 624429); type: functional
[20] = MITF Measured in Cell-Based System Using Plate Reader - 2084-01_Inhibitor_Dose_DryPowder_Activity_Set6.; type: functional
[21] = MALME3 melanoma cell viability reduction, dose response, orthogonal assay for MITF inhibitor project, CellTiter-Glo luminescence, dry powder, set 5 (AID 651584); type: functional, cell-based; conditions: MALME-3

Sequence of Glutathione-S-transferase (Q26513 whole entry): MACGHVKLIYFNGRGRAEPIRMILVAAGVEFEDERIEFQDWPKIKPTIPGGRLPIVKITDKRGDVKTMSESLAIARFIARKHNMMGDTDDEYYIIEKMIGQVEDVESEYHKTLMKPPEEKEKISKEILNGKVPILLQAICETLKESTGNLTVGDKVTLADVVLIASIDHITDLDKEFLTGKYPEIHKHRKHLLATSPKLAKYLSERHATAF
Sequence of Paired box protein Pax-8 (Q06710 whole entry): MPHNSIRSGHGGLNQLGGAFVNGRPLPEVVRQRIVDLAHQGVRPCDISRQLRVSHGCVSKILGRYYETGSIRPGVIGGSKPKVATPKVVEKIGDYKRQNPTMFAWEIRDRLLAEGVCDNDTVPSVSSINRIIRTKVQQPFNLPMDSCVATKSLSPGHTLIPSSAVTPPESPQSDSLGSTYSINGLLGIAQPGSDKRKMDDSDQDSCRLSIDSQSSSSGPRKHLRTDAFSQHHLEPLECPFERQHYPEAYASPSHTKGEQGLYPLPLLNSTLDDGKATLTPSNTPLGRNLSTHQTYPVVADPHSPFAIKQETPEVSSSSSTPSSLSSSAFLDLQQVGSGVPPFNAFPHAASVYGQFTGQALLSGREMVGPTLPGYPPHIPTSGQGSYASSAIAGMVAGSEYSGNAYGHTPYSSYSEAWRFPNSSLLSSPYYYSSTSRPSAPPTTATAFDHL
Sequence of NAD-dependent protein deacylase sirtuin-5, mitochondrial (Q9NXA8 whole entry): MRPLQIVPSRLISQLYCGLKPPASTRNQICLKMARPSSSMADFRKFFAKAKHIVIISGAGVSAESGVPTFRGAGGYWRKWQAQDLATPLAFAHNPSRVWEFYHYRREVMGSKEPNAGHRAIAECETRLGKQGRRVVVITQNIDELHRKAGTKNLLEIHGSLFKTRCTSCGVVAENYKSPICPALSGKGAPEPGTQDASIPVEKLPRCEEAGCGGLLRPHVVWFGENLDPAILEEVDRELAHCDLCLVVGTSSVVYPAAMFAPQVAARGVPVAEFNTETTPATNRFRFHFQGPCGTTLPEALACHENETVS

With CCn1c2ccccc2c(=O)c2ccccc21 the EC50 [1] was > 300 µM (not active), the IC50 [2] was 15.1 µM (active) and the AC50 (cells) was 1.59 µM (active). For the same compound, the EC50 [3] was > 300 µM (not active).
With O=C(C[C@H]1C[C@H]2c3cc(NC(=O)C4CCC4)ccc3O[C@H]2[C@H](CO)O1)NCCN1CCCCC1 the AC50 [4] was > 30 µM (inactive).
For Cc1ccc(S(=O)(=O)Nc2ccc3c(c2)C(=O)N([C@H](C)CO)C[C@H](C)[C@@H](CN(C)S(=O)(=O)c2ccc(C)cc2)OCCCC[C@H](C)O3)cc1, the AC50 [5] was 18.5 µM (active), the AC50 (Paired box protein Pax-8) was 5.76 µM (active) and the AC50 [6] was 44.2 µM (active). The AC50 [7] was 23.6 µM (active), the AC50 [8] was 34.5 µM (active) and the AC50 [9] was > 70 µM (inactive).
For COC(=O)/C(=N/Nc1ccccc1C)N1CCCc2ccccc21, the IC50 [10] was 1.9 µM (active).
For NC1=C(NS(=O)(=O)c2ccccc2)C(=O)c2ccccc2C1=O, the AC50 [11] was > 70 µM (inactive), the AC50 [12] was 4.7 µM (active) and the AC50 [13] was 54.6 µM (active). The AC50 [14] was 16.1 µM (active), the AC50 [15] was 15.8 µM (active) and the AC50 [16] was > 70 µM (inactive). For the same compound, the AC50 [17] was 17.5 µM (active), the AC50 [18] was 22.6 µM (active) and the AC50 [19] was 16.1 µM (active). For the same compound, the AC50 [20] was 7 µM (active) and the AC50 [21] was 22.6 µM (active).
